Results published in patent US9567641B2, “Combination therapy for the treatment of cancer using an anti-C-met antibody” (SAMSUNG ELECTRONICS CO., LTD., priority 2013, dated 2017).

How the values were obtained:
[1] = tested on: MKN45 gastric cancer cell line; assay: Cell viability, CellTiter Glo, combination with L3-1Y/IgG2 antibody; type: cell-based; details: ABT-263 5 uM co-treated with L3-1Y/IgG2 0.08 ug/ml, 72 h
[2] = tested on: MKN45 gastric cancer cell line with acquired resistance against L3-1Y/IgG2 antibody; assay: Cell viability, CellTiter Glo, resistance-acquired cell line; type: cell-based; details: 72 h
Procedure: To see whether the treatment RAF1 siRNA can overcome resistance acquired due to the repetitive treatment of an antibody, tests were carried out using MKN45 gastric cancer cell line which had been treated by L3-1Y/IgG2 antibody for 3 months or longer and acquired resistance against it. The resistance-acquired MKN45 gastric cancer cell line was prepared as follows: MKN45 cells (JCRB, JCRB0254) were treated with L3-1Y/IgG2 antibody in amounts being increased over 3 months or longer. The amount of L3-1Y/IgG2 antibody to be treated started from its initial treatment concentration of 1 ug/ml and was increased up to 10 ug/ml until resistance occurred. To confirm the acquisition of L3-1Y/IgG2 antibody resistance, the resistance-acquired clones were treated or not treated with L3-1Y/IgG2 antibody and then incubated, followed by CTG assays.
As a control group, All Negative control siRNA (Qiagen, cat. no. 1027281) was used, and as a target siRNA, a mixture of two kinds of siRNAs (see Table 7) that had effects during the screening was used. […]
(§1) 5000 cells of MKN45 cells which have acquired resistance against L3-1Y/IgG2 antibody were seeded onto a 96-well plate, and 24 hours after, the plate was treated with L3-1Y/IgG2 antibody and an ITGB3 inhibitor, cilengitide (Merck KGaA, EMD 121974). 72 hours later after the treatment, a change in the number of cells was measured using CellTiter Glo assay. The MKN45 cells which have acquired resistance against L3-1Y/IgG2 antibody were prepared referring to Example 4.3. Cilengitide was treated at a fixed concentration of 10 uM, and the L3-1Y/IgG2 antibody was treated by ⅕ dilution each time starting from 2 ug/ml. For comparison, the same test was conducted using L3-1Y/IgG2 antibody alone.
as §1, with “AKT” for “ITGB3”, “MK-2206” for “cilengitide”, “& Co Inc).” for “KGaA, EMD 121974).”, “MK-2206” for “Cilengitide”, “5” for “10”
To verify whether or not the resistance acquired by repetitive administration of anti-c-Met antibody can be overcome by BCL2L1 inhibition, L3-1Y/IgG2 antibody resistance acquired MKN45 cells, where the resistance against L3-1Y/IgG2 antibody is acquired by treating MKN45 gastric cancer cells (JCRB, JCRB0254) with the L3-1Y/IgG2 antibody for at least 3 months, were used. The L3-1Y/IgG2 antibody resistance acquired MKN45 gastric cancer cells were prepared referring to Example 4.3. […]

[3] = tested on: L3-1Y/IgG2 antibody resistance acquired EBC1 lung cancer cells; assay: as above; type: cell-based; details: ABT-263 0.5 uM co-treated with L3-1Y/IgG2 (1/5 dilutions from 2 ug/ml), 72 h
Procedure: To verify whether or not the resistance acquired by repetitive administration of anti-c-Met antibody can be overcome by BCL2L1 inhibition, L3-1Y/IgG2 antibody resistance acquired EBC1 cells, where the resistance against L3-1Y/IgG2 antibody is acquired by treating EBC1 lung cancer cells (JCRB, JCRB0820) with the L3-1Y/IgG2 antibody for at least 3 months, were used. The L3-1Y/IgG2 antibody resistance acquired EBC1 lung cancer cells were prepared referring to Example 4.3.
5000 cells of the L3-1Y/IgG2 antibody resistance acquired EBC1 cells were seeded onto a 96-well plate and 24 hours after, the plate was treated with a BCL2 family inhibitor, ABT-263 (Abbott Laboratories) and 72 hours later after the antibody treatment, a change in the number of cells was measured using CellTiter Glo assay. ABT-263 was treated at a fixed concentration of 0.5 uM, and the L3-1Y/IgG2 antibody was treated by ⅕ dilution each time starting from 2 ug/ml.

[4] = tested on: HCC1806 breast cancer cells; assay: Cell viability, CellTiter Glo, combination with L3-1Y/IgG2 antibody; type: cell-based; details: 72 h
Procedure: The efficacy of the combination administration of ITGB3 siRNA and L3-1Y/IgG2 antibody was examined in a breast cancer cell line on which the anti-c-Met antibody alone has no effects. For this, HCC1806 (ATCC, CRL-2335) and HCC1954 (ATCC, CRL-2338) cells were used.
As a control group, All Negative control siRNA (Qiagen, cat. no. 1027281) was used, and as a target siRNA, a mixture of two kinds of siRNAs (see Table 7) that had effects during the screening was used. Transfection was carried out by the same procedures as Example 3.1 and after 24 hours, the cultured cells were treated with L3-1Y/IgG2 antibody at 0 ug/ml, 0.016 ug/ml, 0.08 ug/ml, 0.4 ug/ml, or 2 ug/ml. 72 hours later after the treatment, 100 uL of CellTiter Glo solution (Promega, G7572) was added to each well, which was allowed to stay at a room temperature for 30 min. The number of cells was counted via luminescence signals, which were recorded using Envision 2104 Multi-label Reader (Perkin Elmer).
To verify the effect of the combination therapy using ITGB3 inhibitor and anti-c-Met antibody in breast cancer cells on which the anti-c-Met antibody has no effects, HCC1806 (ATCC, CRL-2335) cells were used. The HCC 1806 cells are a cell line known to have high amounts of c-Met.
5000 cells of HCC1806 cells were seeded onto a 96-well plate, and 24 hours after, the plate was treated with L3-1Y/IgG2 antibody and an ITGB3 inhibitor, cilengitide (Merck KGaA, EMD 121974). 72 hours later after the treatment, a change in the number of cells was measured using CellTiter Glo assay. Cilengitide was treated at a fixed concentration of 10 uM, and the L3-1Y/IgG2 antibody was treated by ⅕ dilution each time starting from 2 ug/ml. For comparison, the same test was conducted using L3-1Y/IgG2 antibody alone.
The efficacy of combination administration was examined in a breast cancer cell line on which the anti-c-Met antibody has no effects. For this, HCC1806 (ATCC, CRL-2335) cells were used.
5000 HCC1806 cells were seeded onto a 96-well plate and 24 hours after, the plate was treated with L3-1Y/IgG2 antibody and an AKT inhibitor, MK-2206 (Merck & Co Inc) and 72 hours later after the antibody treatment, a change in the number of cells was measured using CellTiter Glo assay. MK-2206 was treated at a fixed concentration of 10 uM, and the L3-1Y/IgG2 antibody was treated by ⅕ dilution each time starting from 2 ug/ml. For comparison, the same test was conducted using L3-1Y/IgG2 antibody alone.

c-Met = c-Met (Homo sapiens, UniProt P08581); assay: Affinity / specificity for c-Met; type: binding; details: expressed scFv
[5] = cilengitide 10 uM co-treated with L3-1Y/IgG2 (1/5 dilutions from 2 ug/ml)

c-Met, sequence (P08581 25-1390): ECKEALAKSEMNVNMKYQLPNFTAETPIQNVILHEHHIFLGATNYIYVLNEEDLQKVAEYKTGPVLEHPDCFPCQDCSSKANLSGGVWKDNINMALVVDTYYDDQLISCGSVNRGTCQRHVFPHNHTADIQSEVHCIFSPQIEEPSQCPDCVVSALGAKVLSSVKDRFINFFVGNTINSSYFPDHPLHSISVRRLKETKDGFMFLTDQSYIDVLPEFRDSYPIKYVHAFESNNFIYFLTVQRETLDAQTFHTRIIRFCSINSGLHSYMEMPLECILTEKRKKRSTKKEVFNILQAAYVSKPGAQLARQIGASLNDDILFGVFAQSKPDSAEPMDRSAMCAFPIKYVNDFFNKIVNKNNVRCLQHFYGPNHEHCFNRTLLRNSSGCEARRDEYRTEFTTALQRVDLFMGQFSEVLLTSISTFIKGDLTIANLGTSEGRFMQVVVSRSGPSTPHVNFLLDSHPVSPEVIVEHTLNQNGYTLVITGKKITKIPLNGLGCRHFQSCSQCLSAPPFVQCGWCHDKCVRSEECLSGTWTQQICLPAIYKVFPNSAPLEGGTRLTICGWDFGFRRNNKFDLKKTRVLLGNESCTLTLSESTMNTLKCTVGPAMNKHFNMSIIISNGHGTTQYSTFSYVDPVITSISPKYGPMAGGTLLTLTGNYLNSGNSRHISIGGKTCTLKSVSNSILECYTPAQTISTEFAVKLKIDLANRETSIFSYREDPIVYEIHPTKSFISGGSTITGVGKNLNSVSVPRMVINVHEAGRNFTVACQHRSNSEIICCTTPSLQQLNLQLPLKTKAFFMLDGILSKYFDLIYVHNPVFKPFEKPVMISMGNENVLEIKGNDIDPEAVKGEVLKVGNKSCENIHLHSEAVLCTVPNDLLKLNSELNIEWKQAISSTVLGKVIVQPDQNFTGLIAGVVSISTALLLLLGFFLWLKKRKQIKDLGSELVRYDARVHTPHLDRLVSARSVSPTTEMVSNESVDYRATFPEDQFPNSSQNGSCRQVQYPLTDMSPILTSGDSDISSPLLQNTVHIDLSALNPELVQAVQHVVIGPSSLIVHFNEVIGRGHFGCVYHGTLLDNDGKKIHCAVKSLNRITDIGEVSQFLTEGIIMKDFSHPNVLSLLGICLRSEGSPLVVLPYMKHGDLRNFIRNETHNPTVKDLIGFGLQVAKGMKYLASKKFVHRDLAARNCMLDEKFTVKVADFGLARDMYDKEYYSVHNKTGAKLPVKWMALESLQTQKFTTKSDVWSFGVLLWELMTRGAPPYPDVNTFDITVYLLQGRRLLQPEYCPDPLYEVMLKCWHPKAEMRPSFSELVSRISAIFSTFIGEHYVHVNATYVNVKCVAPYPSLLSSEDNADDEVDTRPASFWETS

CC1(C)CCC(c2ccc(Cl)cc2)=C(CN2CCN(c3ccc(C(=O)NS(=O)(=O)c4ccc(N[C@H](CCN5CCOCC5)CSc5ccccc5)c(S(=O)(=O)C(F)(F)F)c4)cc3)CC2)C1 [ABT-263, 4-[4-[[2-(4-Chlorophenyl)-5,5-dimethyl-1-cyclohexen-1-yl]methyl]-1-piperazinyl]-N-[[4-[[(1R)-3-(4-morpholinyl)-1-[(phenylthio)methyl]propyl]amino]-3-[(trifluoromethyl)sulfonyl]phenyl]sulfonyl]benzamide]
growth inhibitory effect (cell viability) [1]: increased compared to the case that the L3-1Y/IgG2 antibody was treated alone
cancer cell growth inhibitory effect (cell viability) ([2]; ABT-263 2.5 uM co-treated with L3-1Y/IgG2 (1/5 dilutions from 2 ug/ml)): can be achieved
cancer cell growth inhibitory effect (cell viability) [3]: can be achieved

NC1(c2ccc(-c3nc4ccn5c(=O)[nH]nc5c4cc3-c3ccccc3)cc2)CCC1 [MK-2206, 8-(4-(1-aminocyclobutyl)phenyl)-9-phenyl-[1,2,4]triazolo[3,4-f][1,6]naphthyridin-3(2H)-one, reference compound]
growth inhibitory effect (cell viability) ([2]; MK-2206 5 uM co-treated with L3-1Y/IgG2 (1/5 dilutions from 2 ug/ml)): exhibited
cancer cell growth inhibitory efficacy (cell viability) ([4]; MK-2206 10 uM co-treated with L3-1Y/IgG2 (1/5 dilutions from 2 ug/ml)): exhibited

CC(C)[C@H]1C(=O)N[C@@H](CCCNC(=N)N)C(=O)NCC(=O)N[C@@H](CC(=O)O)C(=O)N[C@H](Cc2ccccc2)C(=O)N1C [cilengitide, Cyclo(L-arginylglycyl-L-α-aspartyl-D-phenylalanyl-N-methyl-L-valyl), reference compound]
growth inhibitory effect (cell viability) [2, 5]: exhibited
growth inhibitory effect (cell viability) [4, 5]: exhibited

B1: scFv of huAbF46: scFv of huAbF46, VH-linker-VL, encoded by SEQ ID NO: 55 (protein)
scFv: EVQLVESGGGLVQPGGSLRLSCAASGFTFTDYYMSWVRQAPGKGLEWLGFIRNKANGYTTEYSASVKGRFTISRDNSKNTLYLQMNSLRAEDTAVYYCARDNWFAYWGQGTLVTVSSGLGGLGGGGSGGGGSGGSSGVGSDIQMTQSPSSLSASVGDRVTITCKSSQSLLASGNQNNYLAWHQQKPGKAPKMLIIWASTRVSGVPSRFSGSGSGTDFTLTISSLQPEDFATYYCQQSYSAPLTFGQGTKVEIKR
specificity to c-Met (c-Met): specificity to c-Met
